Consider 37 compounds from US20200079766A1, “MONOCYCLIC OGA INHIBITOR COMPOUNDS” (Janssen Pharmaceutica NV, priority 2016, published 2020).

Each structure is given as a SMILES string. Like-named read-outs stand apart in the source and are kept apart here.

The test has as its target T1, recombinant human Meningioma Expressed Antigen 5 (MGEA5), also referred to as O-GlcNAcase (OGA) (Homo sapiens, UniProt O60502).
T1 construct: Full length OGA enzyme was purchased at OriGene (cat # TP322411); purchased OriGene TP322411
T1 sequence (O60502 1-916): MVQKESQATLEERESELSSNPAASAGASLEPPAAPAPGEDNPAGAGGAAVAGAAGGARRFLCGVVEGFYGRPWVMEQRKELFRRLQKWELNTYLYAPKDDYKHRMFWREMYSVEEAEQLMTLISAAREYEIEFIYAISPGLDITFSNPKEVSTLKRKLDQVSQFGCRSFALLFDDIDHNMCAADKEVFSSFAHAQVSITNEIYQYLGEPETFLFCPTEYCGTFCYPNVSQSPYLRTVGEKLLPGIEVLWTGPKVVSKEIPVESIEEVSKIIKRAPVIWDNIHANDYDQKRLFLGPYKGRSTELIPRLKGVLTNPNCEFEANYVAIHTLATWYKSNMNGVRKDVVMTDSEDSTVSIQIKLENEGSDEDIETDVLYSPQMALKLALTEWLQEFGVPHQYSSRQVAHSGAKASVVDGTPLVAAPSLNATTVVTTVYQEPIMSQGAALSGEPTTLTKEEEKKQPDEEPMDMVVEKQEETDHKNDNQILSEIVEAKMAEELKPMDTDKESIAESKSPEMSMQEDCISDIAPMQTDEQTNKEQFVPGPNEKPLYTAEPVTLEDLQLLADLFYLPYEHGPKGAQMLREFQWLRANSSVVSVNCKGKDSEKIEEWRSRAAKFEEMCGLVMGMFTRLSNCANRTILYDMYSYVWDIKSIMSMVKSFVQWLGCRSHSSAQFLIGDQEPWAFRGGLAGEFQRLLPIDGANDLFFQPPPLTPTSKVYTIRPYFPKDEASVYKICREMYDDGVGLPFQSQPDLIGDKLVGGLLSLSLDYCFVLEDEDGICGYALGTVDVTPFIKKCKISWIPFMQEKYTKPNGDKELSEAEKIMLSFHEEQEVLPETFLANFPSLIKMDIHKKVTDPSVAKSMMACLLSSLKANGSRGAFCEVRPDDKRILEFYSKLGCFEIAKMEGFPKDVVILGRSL
As to the kind of experiment: OGA biochemical assay: inhibition of FM-GlcNAc hydrolysis, fluorescence; protocol A (10 nM OGA, 1 h) or protocol B (2 nM OGA, 6 h). Conditions: for IC50: read-out: Enzymatic hOGA, pIC50 (converted). An excerpt: The assay is based on the inhibition of the hydrolysis of fluorescein mono-3-D-N-Acetyl-Glucosamine (FM-GlcNAc) (Mariappa et al. 2015, Biochem J 470:255) by the recombinant human Meningioma Expressed Antigen 5 (MGEA5), also referred to as O-GlcNAcase (OGA). The hydrolysis FM-GlcNAc (Marker Gene technologies, cat # M1485) results in the formation of ß-D-N-glucosamineacetate and fluorescein. The fluorescence of the latter can be measured at excitation wavelength 485 nm and emission wavelength 538 nm. An increase in enzyme activity results in an increase in fluorescence signal. Full length OGA enzyme was purchased at OriGene (cat # TP322411). The enzyme was stored in 25 mM Tris.HCl, pH 7.3, 100 mM glycine, 10% glycerol at −20° C. Thiamet G and GlcNAcStatin were tested as reference compounds (Yuzwa et al. 2008 Nature Chemical Biology 4:483; Yuzwa et al. 2012 Nature Chemical Biology 8:393). The assay was performed in 200 mM Citrate/phosphate buffer supplemented with 0.005% Tween-20. 35.6 g Na2HPO42H2O (Sigma, # C0759) were dissolved in 1 L water to obtain a 200 mM solution. 19.2 g citric acid (Merck, #1.06580) was dissolved in 1 L water to obtain a 100 mM solution. pH of the sodiumphosphate solution was adjusted with the citric acid solution to 7.2. The buffer to stop the reaction consists of a 500 mM Carbonate buffer, pH 11.0. 734 mg
FM-GlcNAc were dissolved in 5.48 mL DMSO to obtain a 250 mM solution and was stored at −20° C. OGA was used at a 10 nM (protocol A) or 2 nM (protocol B) concentration and FM-GlcNAc at a 100 uM final concentration. Dilutions were prepared in assay buffer.
50 nl of a compound dissolved in DMSO was dispensed on Black Proxiplate™ 384 Plus Assay plates (Perkin Elmer, #6008269) and 3 μl fl-OGA enzyme mix added subsequently. Plates were pre-incubated for 60 min at room temperature and then 2 μl FM-GlcNAc substrate mix added. […] Plates were briefly centrifuged for 1 min at 1000 rpm and incubate at room temperature for 1 h (10 nM OGA, protocol A) or 6 h (2 nM OGA, protocol B). To stop the reaction 5 μl STOP buffer were added and plates centrifuge again 1 min at 1000 rpm. Fluorescence was quantified in the Thermo Scientific Fluoroskan Ascent or the PerkinElmer EnVision with excitation wavelength 485 nm and emission wavelength 538 nm.
For analysis a best-fit curve is fitted by a minimum sum of squares method. From this an IC50 value and Hill coefficient was obtained. High control (no inhibitor) and low control (saturating concentrations of standard inhibitor) were used to define the minimum and maximum values.

Setting [1] is: Enzymatic protocol B (2 nM OGA, 6 h).
Where [2] appears, read: Enzymatic protocol A (10 nM OGA, 1 h).

As a reminder, the Emax is the greatest response seen or fitted, relative to the assay's reference. With `Cc1cc(C[C@H]2CCN(C(C)c3nc4ccccc4[nH]3)C2)cc(C)n1` (mixture of isomers) [compound 78], under setting [1], the Emax amounted to 8.78% and the IC50 is more than 10000 nM.

In the case of `Cc1cc(C[C@H]2CCN(C(C)c3cc4ccccc4n3C)C2)cc(C)n1` (mixture of isomers) [compound 94], under setting [1], the Emax was found to be 30.7% and the IC50 is more than 10000 nM.

For `CC(=O)Nc1ncc(CN2CCCC(COc3cc(C)nc(C)c3)C2)[nH]1` (racemic) [compound 132], under setting [1], the Emax was found to be 91.9% and the IC50 was 1230 nM.

Take `Cc1cc(CC2CCCN(C(C)c3nc4ccccc4[nH]3)C2)cc(C)n1` (racemic) [compound 149]: under setting [1], the Emax was 67.6% and the IC50 was 5370 nM.

For `Cc1cc(OCC2(F)CCCN(Cc3ccc4nccnc4c3)C2)cc(C)n1` (racemic) [compound 157], under setting [1], the Emax is 69% and the IC50 was 2400 nM.

`CC(=O)Nc1ncc(CN2C[C@@H](F)C[C@@H](COc3cc(C)nc(C)n3)C2)s1` (racemic) [compound 164]: under setting [1], the Emax stood at 94% and the IC50 is 617 nM.

With `CC(=O)Nc1ncc(CN2C[C@@H](Cc3cc(C)nc(C)c3)CC[C@@H]2C)s1` (racemic) [compound 165], under setting [1], the Emax came out at 100% and the IC50 was 2.24 nM.

As for `CC(=O)Nc1ncc(CN2C[C@@H](Cc3cc(C)nc(C)c3)CC[C@H]2C)s1` (racemic) [compound 166], under setting [1], the Emax amounted to 99% and the IC50 was 2.63 nM.

In the case of `CC(=O)Nc1ncc(CN2CCC[C@@H](Cc3cc(C)nc(C)c3)[C@H]2C)s1` (racemic) [compound 169], under setting [1], the Emax came out at 100% and the IC50 was 87.1 nM.

For `CC(=O)Nc1ncc(CN2CCCC(c3cc(C)nc(C)c3)C2)s1` (single isomer, unassigned) [compound 131], under setting [1], the “Enzymatic Emax (%)” value turned out to be 85.38% and the IC50 was 977 nM.

For the compound `CC(=O)Nc1ncc(CN2CCC[C@@H](Cc3cc(C)nc(C)c3)[C@H]2C)s1` (single isomer, unassigned) [compound 170], under setting [1], the Emax came out at 100% and the IC50 was 81.3 nM.

Take `CC(=O)Nc1ncc(CN2CCC[C@H](Cc3cc(C)nc(C)c3)[C@@H]2C)s1` (single isomer, unassigned) [compound 171]: under setting [1], the Emax is 52% and the IC50 is 9550 nM.

For the compound `CC(=O)Nc1ncc(S(=O)(=O)N2CCCC(Oc3cc(C)nc(C)c3)C2)s1` (stereo not drawn) [compound 1], under setting [2], the Emax came to 96.3% and the IC50 was 661 nM.

On to `CC(=O)Nc1ncc(S(=O)(=O)N2CCCC(Oc3ccnc(C)c3)C2)s1` (stereo not drawn) [compound 2], for which, under setting [2], the Emax amounted to 89% and the IC50 is 1050 nM.

On to `CC(=O)Nc1ncc(S(=O)(=O)N2CCC(c3ccnc(C)c3)C2)s1` (stereo not drawn) [compound 3], for which, under setting [2], the Emax is 15% and the IC50 is more than 10000 nM. Besides, under setting [1], the Emax was 43% and the IC50 is more than 10000 nM.

Consider `CC(=O)Nc1ncc(S(=O)(=O)N2CCC(c3ccc(C)nc3)C2)s1` (stereo not drawn) [compound 4], for which, under setting [1], the Emax was found to be 50.5%.

As for `CC(=O)Nc1ncc(CN2CCCC(c3ccccc3)C2)s1` (stereo not drawn) [compound 5, reference compound], under setting [2], the Emax is 102% and the IC50 is 141 nM.

Take `CC(=O)Nc1ncc(CN2CCC[C@@H](Nc3cc(C)nc(C)c3)C2)s1` [compound 8]: under setting [1], the Emax worked out at 101% and the IC50 is 50.1 nM.

Regarding `Cc1cc(N[C@@H]2CCCN(Cc3ccc4nccnc4c3)C2)cc(C)n1` [compound 10], under setting [1], the Emax came to 85.6% and the IC50 is 1660 nM.

As for `Cc1cc(N[C@H]2CCCN(Cc3ccc4nccnc4c3)C2)cc(C)n1` [compound 12], under setting [1], the Emax was 92.9% and the IC50 was 676 nM.

For the compound `CC(=O)Nc1ncc(CN2CCCC(OCc3cc(C)nc(C)c3)C2)s1` (stereo not drawn) [compound 21], under setting [1], the Emax came out at 101% and the IC50 was 63.1 nM.

As for `CC(=O)Nc1ncc(CN2CC[C@@H](Nc3cc(C)nc(C)c3)C2)s1` [compound 22], under setting [1], the Emax worked out at 99.8% and the IC50 was 214 nM.

Regarding `CC(=O)Nc1ncc(CN2CC[C@H](Nc3cc(C)nc(C)c3)C2)s1` [compound 23], under setting [1], the Emax worked out at 101% and the IC50 was 158 nM.

Consider `CC(=O)Nc1ncc(CN2CCCC(N(C)c3cc(C)nc(C)c3)C2)s1` (stereo not drawn) [compound 32], for which, under setting [1], the Emax is 101% and the IC50 is 13.5 nM.

Turning to `CC(=O)Nc1ncc(CN2CC[C@@H](Cc3ccc(C(F)(F)F)c(C)n3)C2)s1` [compound 36], under setting [1], the Emax amounted to 99% and the IC50 was 56.2 nM.

Turning to `CC(=O)Nc1ncc(CN2CCC(Cc3cccc(C(C)C)n3)C2)s1` (stereo not drawn) [compound 40], under setting [1], the Emax is 99.7% and the IC50 was 7.76 nM.

As for `COc1cc(C[C@H]2CCN(Cc3cnc(NC(C)=O)s3)C2)cc(C)n1` [compound 42], under setting [1], the Emax worked out at 101% and the IC50 is 8.32 nM.

With `CC(=O)Nc1ncc(CN2CC[C@H](Cc3cncnc3)C2)s1` [compound 55], under setting [1], the Emax came out at 99.8% and the IC50 was 55 nM.

With `COc1ccc(C)nc1C[C@H]1CCN(Cc2cnc(NC(C)=O)s2)C1` [compound 57], under setting [1], the Emax is 100% and the IC50 was 45.7 nM.

As for `CC(=O)Nc1ncc(CN2CCC(Cc3ccc(C(F)(F)F)nn3)C2)s1` (stereo not drawn) [compound 65], under setting [1], the “Enzymatic Emax (%)” value is 100% and the “Enzymatic hOGA; pIC50” value was determined as 7.28.

Consider `CC(=O)Nc1ncc(CN2CCC(Cc3ccc(C(F)(F)F)cn3)C2)s1` (stereo not drawn) [compound 68], for which, under setting [1], the “Enzymatic Emax (%)” value is given as 101.5% and the “Enzymatic hOGA; pIC50” value is listed as 7.10.

For the compound `Cc1cc(C[C@H]2CCN(Cc3ccc4sc(C)nc4c3)C2)cc(C)n1` [compound 82], under setting [1], the “Enzymatic Emax (%)” value is on record as 87.4% and the “Enzymatic hOGA; pIC50” value was 5.91.

As for `Cc1cc(C[C@H]2CCN(Cc3ccc4scnc4c3)C2)cc(C)n1` [compound 83], under setting [1], the “Enzymatic Emax (%)” value was 87.8% and the “Enzymatic hOGA; pIC50” value was 5.79.

On to `Cc1cc(C[C@H]2CCN(Cc3ccc4c(c3)OCO4)C2)cc(C)n1` [compound 99], for which, under setting [1], the “Enzymatic Emax (%)” value was −6.5% and the “Enzymatic hOGA; pIC50” value is reported as less than 5.

Turning to `Cc1cc(C[C@H]2CCN(Cc3ccc4c(c3)OCCO4)C2)cc(C)n1` [compound 101], under setting [1], the “Enzymatic Emax (%)” value was 81.7% and the “Enzymatic hOGA; pIC50” value came to 5.8.

Consider `Cc1cc([C@@H]2CCCN([C@@H](C)c3ccc4sc(C)nc4c3)C2)cc(C)n1` [compound 116], for which, under setting [1], the Emax is 79.2% and the IC50 was 3470 nM.

On to `CC(=O)Nc1ncc(CN2CCCC(COc3cc(C)nc(C)c3)C2)[nH]1` (stereo not drawn) [compound 120], for which, under setting [1], the Emax was 91.9% and the IC50 was 1230 nM.
